Experimental data: BigSolDB 2.1

CCCCN(CCCC)CC(O)c1cc(Cl)cc2c1-c1ccc(Cl)cc1/C2=C/c1ccc(Cl)cc1 (stereo not given)
solubility (mole fraction)
Conditions | 278.15 K | 283.15 K | 288.15 K | 293.15 K | 298.15 K | 303.15 K | 308.15 K | 313.15 K | 318.15 K | 323.15 K
in ethyl acetate | 0.00178 | 0.00234 | 0.00317 | 0.00411 | 0.0054 | 0.00693 | 0.00903 | 0.0116 | 0.0152 | 0.0201
in methanol | 1.34e-05 | 1.7e-05 | 2.28e-05 | 3.04e-05 | 3.82e-05 | 4.97e-05 | 6.3e-05 | 8.2e-05 | 0.000106 | 0.000136
in n-butyl acetate | 0.00425 | 0.00533 | 0.00674 | 0.00866 | 0.0108 | 0.0138 | 0.0176 | 0.0223 | 0.0286 | 0.036
in n-pentyl acetate | 0.00475 | 0.00656 | 0.00849 | 0.011 | 0.0137 | 0.0168 | 0.0212 | 0.0253 | 0.0327 | 0.0407
in n-propyl acetate | 0.00281 | 0.00366 | 0.00486 | 0.00656 | 0.00841 | 0.0109 | 0.0139 | 0.018 | 0.0231 | 0.0305
